The results in this text go back to patent publication US11298366B2, “Ibandronate conjugates of nucleoside antimetabolites” (MBC Pharma, Inc., priority 2017, dated 2022).

For assay [1], the system named is MDA-MB-231-luc-D3H2LN cells. Briefly: Survival in a rodent model of breast cancer (intracardiac injection of MDA-MB-231-luc-D3H2LN cells). The class given is in vivo, Female Harlan nude mice (Hsd:Athymic Nude-Foxn1nu). To be noted: for effect on survival (Kaplan-Meier, FIG. 1): intraperitoneal QDx5 from day 22 after implantation, 5 mg/kg gemcitabine-ibandronate conjugate, 6 mg/mg gemcitabine-etidronate conjugate, equimolar free etidronate, ibandronate, gemcitabine, groups of 10. As to the method:
FIG. 1 provides Kaplan-Meier survival curves: a murine model of breast cancer of mice treated with saline gemcitabine-ibandronate conjugate (GEM-IB) or gemcitabine-etidronate conjugate (GEM-ET).
Female Harlan nude mice (Hsd:Athymic Nude-Foxn1nu) of 8 weeks age were administered a 100 uL intracardiac injection of MDA-MB-231-luc-D3H2LN cells (Caliper/Xenogen) at106 cells/mL in Dulbecco's Phosphate Buffered Saline. Twenty-two days after implantation the animals were randomized into groups of 10. Each group received one of the following agents 5 days per week (QDx5) as a 100 uL intraperitoneal injection to achieve a dosing of: saline, 5 mg/kg gemcitabine-ibandronate conjugate, 6 mg/mg gemcitabine-etidronate conjugate, equimolar free etidronate, equimolar free ibandronate, equimolar free gemcitabine.

The subject of assay [2] is 22 RV1-Luc+ prostate cancer cells. The assay can be described thus: Incidence of distal metastases in a rodent model of prostate cancer induced bone disease (intratibial 22 RV1-Luc+ cells). It is filed as in vivo, male SCID mice. To be noted: day 34 and day 41; for percent of mice with distal metastases (FIG. 3): 2 mg/kg gemcitabine-ibandronate conjugate or molar equivalent, intraperitoneal QDx5 from day 7, versus saline. The procedure: Mice were treated with saline, or equimolar doses of ibandronate (Iband), gemcitabine (Gem), gemcitabine-etidronate conjugate (Gem-Eti), or with the gemcitabine-ibandronate conjugate 5 (Gem-Ibad).
As above in example 5, six-week old male SCID mice were injected with 10 uL of 10^6 22 RV1-Luc+ prostate cancer cells into the tibia. Luminescence on day 6 confirmed implantation and mice were randomized into groups of 10-13 and began dosing on day 7. Mice received intraperitoneal injections QDx5 (5 days/week) of saline or 2 mg/kg gemcitibine-ibandronate conjugate or the molar equivalent of gemcitabine-etidronate conjugate, free ibandronate, or free gemcitibine until the end of week 6 and were imaged every 7 days. A Xenogen imaging station was used to visualize tumor cells and metastases distal to the tibial site of implantation.

Assay [3] shares this test system. Briefly: Survival and tumor imaging in a rodent model of prostate cancer induced bone disease (intratibial 22 RV1-Luc+ cells). The class given is in vivo, male SCID mice. As to the method: Six-week old male SCID mice were injected with 10 uL of 10^6 22 RV1-Luc+ prostate cancer cells into the tibia. Luminescence on day 6 confirmed implantation and mice were randomized into groups of 10 and began dosing on day 7. Mice received intraperitoneal injections 5 days/week of saline or 2 mg/kg gemcitibine-ibandronate conjugate (compound 5, example 1) until the end of week 6 and were imaged every 7 days. A Xenogen imaging station was used to visualize tumor cells; the heat map from light blue to red indicates increasing tumor cells numbers.

In the case of “gemcitabine-etidronate conjugate [reference compound]”, in assay [1], the “effect on survival (Kaplan-Meier, FIG. 1)” value (“effect on survival” for short) is reported as “improved survival”. Besides, the “percent of mice with distal metastases (FIG. 3)” value in assay [2] was “reduced the percent of mice with distal metastases”.
`Nc1ccn([C@@H]2O[C@H](CO)[C@@H](O)C2(F)F)c(=O)n1` [gemcitabine, Gemcitabine]: in assay [1], the “effect on survival” value was “did not have a significant effect on survival”.
Turning to `CCCCCN(C)CCC(O)(P(=O)(O)O)P(=O)(O)O` [ibandronate], the “effect on survival” value in assay [1] is on record as “did not have a significant effect on survival”.
On the same count and under the same terms, to `CC(O)(P(=O)(O)O)P(=O)(O)O` [etidronate] belongs “did not have a significant effect on survival”.
With `CCCCCN(C)CCC(O)(P(=O)(O)O)P(=O)(O)OP(=O)(O)OC[C@H]1O[C@@H](n2ccc(N)nc2=O)C(F)(F)C1O` (some centres unmarked) [conjugate 5, Gemcitabine-Ibandronate Conjugate], in assay [1] (intraperitoneal QDx5, 5 mg/kg gemcitabine-ibandronate conjugate versus 6 mg/mg gemcitabine-etidronate conjugate), the “survival benefit compared with the other treatments” value was “greatest benefit”. The “effect on survival” value in assay [1] is listed as “improved survival”. Also, the “percent of mice with distal metastases (FIG. 3)” value in assay [2] was “reduced the percent of mice with distal metastases”. Moreover, the “benefit on distal metastases compared with the other treatments” value in assay [2] (2 mg/kg intraperitoneal QDx5) was “superior benefit”. Moreover, the “mice alive at the end of 42 days (FIG. 2)” value in assay [3] (2 mg/kg intraperitoneal 5 days/week from day 7 until end of week 6, groups of 10, saline control 6 of 10 alive) is “all mice treated with the compound 5 (example 1) were alive”. The “cancer cells present by Xenogen image analysis” value in assay [3] (2 mg/kg intraperitoneal 5 days/week, from day 28 and later, versus saline) is on record as “less cancer cells are present”.
